# Values quoted from earlier work in patent US20100310597A1, “ANTI-OFLOXACIN MONOCLONAL ANTIBODY AND IMMUNOASSAY OF OFLOXACIN USING THE SAME” (SEKISUI MEDICAL CO., LTD, priority 2007, published 2010).
# Conditions: background statement
smiles,measurement,value
"C[C@H]1COc2c(N3CCN(C)CC3)c(F)cc3c(=O)c(C(=O)O)cn1c23 [levofloxacin, (−)-(S)-9-fluoro-2,3-dihydro-3-methyl-10-(4-methyl-1-piperazinyl)-7-oxo-7H-pyrido[1,2,3-de][1,4]benzoxazine-6-carboxylic acid]",Antibiotic activity relative to ofloxacin,approximately twice
